We go through 9 compounds from US12378204B2, “Triazole compounds and preparation method therefor and use thereof” (WUHAN LL SCIENCE AND TECHNOLOGY DEVELOPMENT CO., LTD., priority 2019, dated 2025).

The half-life is the time needed for the level to fall by half in the phase considered. For orientation: IC50 means the concentration at which inhibition is half-maximal. The term CC50 denotes the concentration that lowers cell viability or growth by half.

The nature of data set [1]: In vitro metabolic stability, rat liver microsomes. The format is in vitro ADME. Conditions: 1 mg/mL liver microsome protein, 37° C. Here is the method:
(§1) The in vitro metabolic stability of the compounds disclosed herein was determined through incubation of liver microsomes of various species. A proper amount of test compound was added into a liver microsome reaction system (1 mg/mL liver microsome protein, 25 U/mL glucose-6 phosphate dehydrogenase, 1 mM NADP, 6 mM D-glucose 6-phosphate and 5 mM MgCl2), and then the mixture was incubated in a water bath kettle at 37° C. to start reaction. At each time point, 100 μL of the reaction system was added into a centrifuge tube containing 400 μL of internal standard working solution (containing a 200 ng/mL solution of dexamethasone, diclofenac, tolbutamide and labetalol in acetonitrile) precooled at 0° C. so as to stop the reaction, and the mixture was then centrifuged at 10,000 g for 10 min at 4° C. The supernatant was collected for LC-MS assay so as to obtain the values of in vitro metabolic half-life of the test compounds in liver microsomes of various species.
For orientation: Liver microsomes are a subcellular fraction often used to study metabolism.

Data set [2] concerns the target T1, hLPAR1 (human lysophosphatidic acid receptor 1) (Homo sapiens, UniProt Q92633).
T1 construct: expressed in transfected cells
Nature of the data set: FLIPR intracellular calcium assay, hLPAR1 expressed in CHO-K1 cells. The following applies: antagonism of 1 μM LPA-induced calcium increase, CHO-K1 cells expressing hLPAR1; read-out: LPAR1 IC50. In kind it is cell-based. As for the experimental part:
The antagonist property of the compounds disclosed herein was determined using the FLIPR (fluorescence imaging plate reader) method, wherein the compounds are inhibitors for the intracellular calcium increase induced by activation of hLPAR1 (human lysophosphatidic acid receptor 1, accession No. NM_001401.4) expressed in CHO-K1 cells (Chinese hamster ovary cells K1, ATCC).
CHO-K1 cells stably expressing hLPAR1 were cultured in F-12 medium containing 10% FBS (fetal bovine serum, Gibco, 10099-141), 1% penicillin-streptomycin (Gibco, 15140-122) and 0.4 mg/mL hygromycin B (Gibco, 10687010) in a cell incubator (37° C., […]). During 18-24 h prior to the FLIPR experiment, cells at 250,000 cells/mL were seeded into a 96-well plate (25,000 cells/well) and incubated overnight in the cell incubator. On the day of the experiment, the medium was discarded and the cells were washed in a FLIPR buffer (0.3 mL of probenecid (Thermo, P36400), 0.6 mL of 1 M HEPES (Invitrogen, 15630080) and 29.1 mL of HBSS (Invitrogen, 14065056) per 30 mL of buffer). Each well was added with 75 μL of 1 mM Fluo-4 AM fluorescent dye (Thermo, F14202) and then the cells were subjected to dye-loading incubation at 37° C. for 1.0 h. The 96-well plate was then washed once with buffer, added with a buffer containing a test compound or vehicle at 50 μL per well and then incubated for 30 min at room temperature. The cell plate was then placed in the FLIPR for baseline fluorescence measurements (excitation at 485 nm and emission at 525-535 nm). An agonist (oleoyl-L-α-lysophosphatidic acid sodium salt (Sigma, L7260) at a final concentration of 1 μM) or a vehicle (ultrapure water) was then added at 50 μL/well, fluorescence values were measured for 2 min at 1-second intervals, and finally the output fluorescence counts were analyzed.

Data set [3] in a line: In vitro metabolic stability, mouse liver microsomes. The following applies: 1 mg/mL liver microsome protein, 37° C. The format is in vitro ADME. Here is the method: as §1
A short description of data set [4]: In vitro cytotoxicity assay in HepG2 cells, CCK-8 method. In kind it is cell-based. The following applies: human, 48 h incubation. Here is the method: In vitro cytotoxicity assay for the compounds disclosed herein was performed in HepG2 cells using the CCK-8 method. HepG2 cells (Beina Bio) in the logarithmic growth phase were collected, the concentration of cell suspension was adjusted, and then the cells were plated on a 96-well cell culture plate at 50,000 cells/well. • The cells were then incubated overnight in a cell incubator (5% CO2, 37° C.), and after 80-90% cell confluence was achieved, test compounds or vehicle (DMSO) at various concentration gradients were added after medium change. The resulting mixture was incubated in the cell incubator (5% CO2, 37° C.) for 48 h. After the treatment, the medium in the plate was discarded. The plate was washed twice with PBS, added with CCK-8 working solution (Beyotime) at 100 μL per well, and then incubated at 37° C. for 1.5 h in the dark. Absorbance at OD450nm was measured for each well on a microplate reader, and CC50 value of each compound was analyzed and calculated.
On the technique in general: Tetrazolium dyes change colour on reduction, which living cells bring about.

The test system of data set [5] is A2058 (human melanoma cells). Nature of the data set: A2058 cell scratch assay (cell migration inhibition). The following applies: A2058 scratch area 0 h vs 24 h, 10 μM LPA, read-out: Cell migration inhibition rate. In kind it is cell-based. Here is the method: The activity of the compounds disclosed herein at the cell level in vitro is evaluated by A2058 (human melanoma cells, Beina Bio, BNCC341099) cell scratch assay. The inhibitory activity of the compounds against LPAR1 can be reflected by inhibition of cell scratch healing.
A2058 cells in a T75 cm^2 cell culture flask were digested and gently pipetted into single cells, adjusted to a cell density of 4×10^5 cells/mL, and then seeded into a 24-well plate. After the cell confluence reached 80%, the cell culture plate was taken out and the original medium was discarded. Serum-free medium was then added, and the cells were starved overnight in an incubator (37° C., 5% CO2). The cell culture plate was then taken out, and cell scratches were made along the diameter of the wells using a 200 μL pipette tip. The cell culture plate was then added with 500 μL of serum-free medium and then shaken gently to wash away the residual cells on the scratched surface, and this was repeated twice. The medium was discarded and 500 μL of 1% FBS medium containing the compound was then added, and the mixture was incubated at 37° C. for 30 min. […] Olympus CKX53 was used to observe the scratches, and MShot image analysis system was used to take pictures and measure the scratch area at 0 h. Then the cell culture plate was incubated in the incubator (37° C., 5% CO2). 24 h later, the scratches were observed again with Olympus CKX53, and MShot image analysis system was used to take pictures and measure the scratch area at 24 h. Cell migration inhibition rate was calculated according to the following formula: […]

The nature of data set [6]: In vitro metabolic stability, human liver microsomes. In kind it is in vitro ADME. Conditions: 1 mg/mL liver microsome protein, 37° C. Here is the method:
as §1

T1 sequence (Q92633 whole entry): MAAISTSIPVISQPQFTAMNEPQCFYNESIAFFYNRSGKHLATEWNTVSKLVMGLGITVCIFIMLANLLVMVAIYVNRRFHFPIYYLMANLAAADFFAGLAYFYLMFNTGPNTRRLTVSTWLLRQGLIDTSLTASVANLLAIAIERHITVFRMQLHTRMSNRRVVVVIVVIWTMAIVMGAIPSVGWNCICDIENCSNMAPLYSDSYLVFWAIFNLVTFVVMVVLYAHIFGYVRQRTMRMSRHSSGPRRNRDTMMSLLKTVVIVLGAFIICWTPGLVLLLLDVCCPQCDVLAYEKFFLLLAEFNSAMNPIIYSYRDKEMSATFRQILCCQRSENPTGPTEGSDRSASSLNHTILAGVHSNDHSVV

As to `CN(Cc1ccccc1)C(=O)/C=C/c1c(-c2ccc(O[C@H]3CCC[C@H](C(=O)O)C3)cc2)nnn1C` (racemic) [Compound 2], the half-life in data set [1], in data set [3] and in data set [6] was greater than 30 min in each case. The IC50 in data set [2] is 50 to 300 nM. Also, the CC50 at 48 h in data set [4] is greater than 200000 nM. In addition, in data set [5], the inhibition was in the range of 0 to 30%.
As for `CN(Cc1ccccc1)C(=O)CCc1c(-c2ccc(O[C@H]3CCC[C@H](C(=O)O)C3)cc2)nnn1C` (racemic) [Compound 3], the half-life in data set [1], in data set [3] and in data set [6] was greater than 30 min in each case. In addition, the IC50 in data set [2] lay within 50 to 300 nM. Moreover, the CC50 at 48 h in data set [4] is greater than 200000 nM. Besides, the inhibition in data set [5] was in the range of 30 to 50%.
`CN(C(=O)NCc1c(-c2ccc(O[C@H]3CCC[C@H](C(=O)O)C3)c(C(F)(F)F)n2)nnn1C)C1CCCC1` (racemic) [Compound 26, (+/−)-(1S,3S)-3-((6-(5-((3-cyclopentyl-3-methylureido)methyl)-1-methyl-1H-1,2,3-triazol-4-yl)-2-(trifluoromethyl)pyridin-3-yl)oxo)cyclohexane-1-carboxylic acid]: the half-life in data set [1], in data set [3] and in data set [6] was greater than 30 min throughout. In addition, the IC50 in data set [2] is no more than 50 nM. For the same compound, the CC50 at 48 h in data set [4] was greater than 200000 nM. Also, in data set [5], the inhibition is 30 to 50%.
Turning to `CN(C(=O)CCc1c(-c2ccc(O[C@H]3CCC[C@H](C(=O)O)C3)c(C(F)(F)F)n2)nnn1C)C1CCCC1` (racemic) [Compound 27-A, (+/−)-(1S,3S)-3-((6-(5-(3-(cyclopentyl(methyl)amino)-3-carbonylpropyl)-1-methyl-1H-1,2,3-triazol-4-yl)-2-(trifluoromethyl)pyridin-3-yl)oxo)cyclohexane-1-carboxylic acid], the half-life in data set [1] came to 57 min; in data set [3] it was 192 min; in data set [6], 232 min. Also, in data set [2], the IC50 is no more than 50 nM. This compound also had a CC50 at 48 h in data set [4] greater than 200000 nM. Moreover, the inhibition in data set [5] was 50 to 70%.
On to `CN(C(=O)OC1CCCC1)c1c(-c2ccc(O[C@H]3CCC[C@H](C(=O)O)C3)cc2)nnn1C` (racemic) [Compound 31, (+/−)-(1S,3S)-3-(4-(5-(((cyclopentyloxy)carbonyl)(methyl)amino)-1-methyl-1H-1,2,3-triazol-4-yl)phenoxy)cyclohexane-1-carboxylic acid], for which the half-life in data set [1], in data set [3] and in data set [6] was greater than 30 min throughout. Further, the IC50 in data set [2] fell in the range of 50 to 300 nM. Further, the CC50 at 48 h in data set [4] is greater than 200000 nM. The inhibition in data set [5] is 30 to 50%.
Regarding `CN(Cc1ccccc1)C(=O)OCc1c(-c2ccc(Oc3cc(Cl)ccc3C(=O)O)cc2)nnn1C` [Compound 7, 4-chloro-2-(4-(5-(((benzyl(methyl)carbamoyl)oxo)methyl)-1-methyl-1H-1,2,3-triazol-4-yl)phenoxy)benzoic acid], the half-life in data set [1] was less than 30 min; in data set [3] it was greater than 30 min; in data set [6], greater than 30 min. The IC50 in data set [2] lay within 300 to 10000 nM. Moreover, the CC50 at 48 h in data set [4] is greater than 200000 nM. In addition, the inhibition in data set [5] was in the range of 0 to 30%.
For the compound `CN(Cc1c(-c2ccc(O[C@H]3CCC[C@H](C(=O)O)C3)cc2)nnn1C)C(=O)OCc1ccccc1` [Compound 14, (1S,3S)-3-(4-(5-((((benzyloxy)carbonyl)(methyl)amino)methyl)-1-methyl-1H-1,2,3-triazol-4-yl)phenoxy)cyclohexane-1-carboxylic acid], the IC50 in data set [2] was in the range of 50 to 300 nM. The same compound registered a CC50 at 48 h in data set [4] greater than 200000 nM. Also, the inhibition in data set [5] lay within 30 to 50%.
`CN(C(=O)NCc1c(-c2ccc(O[C@H]3CCC[C@H](C(=O)O)C3)c(F)c2)nnn1C)C1CCCC1` [Compound 25]: the half-life in data set [1], in data set [3] and in data set [6] was greater than 30 min in each case. Also, the IC50 in data set [2] lay in the range of 50 to 300 nM. For the same compound, the CC50 at 48 h in data set [4] was greater than 200000 nM. Besides, in data set [5], the inhibition lay in the range of 30 to 50%.
For `Cn1nnc(-c2ccc(O[C@H]3CCC[C@H](C(=O)O)C3)c(C(F)(F)F)n2)c1C1CN(C2CCCC2)C(=O)O1` (stereo partly drawn) [Compound 29], the IC50 in data set [2] fell in the range of 300 to 10000 nM. Moreover, the CC50 at 48 h in data set [4] was greater than 200000 nM. For the same compound, in data set [5], the inhibition is 0 to 30%.
